The text below walks through data of patent US20250032581A1, “COMPOSITIONS AND ARTICLES COMPRISING AN ADNF POLYPEPTIDE” (RAMOT AT TEL-AVIV UNIVERSITY LTD., priority 2021, published 2025).

For series [1], the system named is Tyr mice. Description: Fecal microbiome real-time PCR. The settings on record: WT mice. The class given is in vivo, mouse. The method, then:
Microbiome—Fecal samples were collected from 12.2±0.19-week-old mice. Samples were prepared and analyzed as previously described (57). Microbiome data was analyzed after applying the logarithmic transformation.
(In general: Real-time PCR tracks product formation cycle by cycle.)

Series [2] has as its system Tau-MT interaction in differentiated N1E-115 cells. As to the kind of experiment: Fluorescence recovery after photobleaching (FRAP) of mCherry-Tau. The series is classed as cell-based, mouse. To be noted: for Tau-MT interaction (immobile mCherry-Tau fraction): 4 hrs. The method, then:
Cell culture—Mouse neuroblastoma NIE-115 cells were maintained in Dulbecco's modified Eagle's medium, 10% fetal bovine serum, 2 mM glutamine and 100 U ml-1 penicillin, 100 mg ml-1 streptomycin (Biological Industries, Beit Haemek, Israel). The cells were incubated in 9 5% air/5% CO2 in a humidified incubator at 37° C.
Cell differentiation and co-transfection of overexpression plasmids—Cultured NIE-115 cells were plated on 35 mm dishes (81156, 60 p-Dish, Ibidi, Martinsried, Germany) at a concentration of 1.25×10^4 cells per dish and then were differentiated with reduced fetal bovine serum (2%) and DMSO (1.25%) containing medium for 5 days before transfection. 48 hrs before experiments N1E-115 cells were co-transfected with 1 μg EB3-RFP or mCherry-Tau (3R) plasmid with or without 2 μg of plasmids, coding to GFP conjugated to full-length human ADNP, or ADNP carried mutations. 1:3 ratios between total amount of transfected DNA and transfection reagent were used according to manufacture guidance (Lipofectamine2000, Thermo Fisher Scientific, Waltham, MA, USA) in all subsequent experiments.
Fluorescence recovery after photobleaching (FRAP)—Differentiated NIE-115 cells were transfected with mCherry-Tau with or without GFP-conjugated to full-length ADNP or mutated ADNP, and imaged 48 hrs after transfection. An ROI for photobleaching was drowned in the proximal cell branches. mCherry-Tau was bleached with a […], and fluorescence recovery was collected within wavelengths of 610-650 nm. 80 images were taken every 0.74 sec immediately after bleaching. After FRAP imaging all samples were also treated with NAP in final concentrations of 10^−12M, and after 4 hrs time-lapse imaging was done again under the same conditions. FRAP imaging for assessment difference between NAP and SKIP (SEQ ID NO: 21) activity was performed after an hour of ZnCl2 treatment (400 μM final concentration; Sigma, Rehovot, Israel) with or without NAP/SKIP (10^−12M final concentration). Fluorescence signals were quantified with Fiji, obtained data were normalized with easyFRAP [82, 83] and FRAP recovery curves were fitted by a one-phase exponential association function by GraphPad Prism6 (GraphPad Software, Inc., La Jolla, CA, USA) while samples with R^2<0.9 were excluded.
Next, the effect of full-length/truncated ADNP forms with or without NAP treatment on Tau-MT interaction was examined by fluorescence recovery after photobleaching (FRAP) (FIGS. 8A-C). FRAP was performed with mCherry-tagged Tau protein (FIG. 8A). […] Therefore, the immobile mCherry-Tau fraction reflects the rate of Tau association with MTs.

For series [3] the following is noted: cited from earlier work.
The test system of series [4] is ADNP^+/− MOUSE. Details: key: corrections by NAP treatment (+). To be noted: Adnp+/− mouse (second symbol); cited from earlier work.
For series [5], the system named is AT8 (hyperphosphorylated Tau). Description: AT8 immunohistochemistry (hyperphosphorylated Tau). The class given is in vivo, mouse. The settings on record: WT males, data not shown. The method, then: AT8 Immunohistochemistry—experiment was performed as previously described (100). Mice were treated for 6 weeks with daily intranasal DD/NAP and were euthanized at 10.21±0.05 weeks of age.

In series [6] the test system is Tyr mice. As to the kind of experiment: Ultrasonic vocalizations (USV) and syntax analysis of P8 pups (DeepSqueak). The class given is in vivo, mouse. An excerpt: The Intensity parameter is used to assess the effects of neuropathic pain, including mechanical allodynia. Max Contact Mean Intensity is the mean Intensity of a paw at Max Contact. Print length is the length (horizontal direction) of the complete print. The complete print is the sum of all contacts with the glass plate, as if the animal's paw would have been inked. Print width is the width (vertical direction) of the complete paw. Print area is the surface area of the complete print. Max Intensity is the maximum Intensity of the complete paw. Mean intensity is the mean Intensity of the complete paw. • USV: On P8, each pup was separated from the dam and placed in an empty cage for 6 minutes, in a quiet room and was recorded using the M500-384 USB Ultrasound Microphone (Petterson, Sweden). Pups were distinguished from one another using the tattoos listed above. After 6 minutes pups were reunited with its dam. Data were analyzed using DeepSqueak. Data were loaded onto DeepSqueak, frequencies between 40-70 kHz were analyzed using the mouse call network V2. Calls were denoised using post hoc denoising network. For syntax analysis, Syntax was classified using Wright K means network. Syntax transition probability charts were generated using DeepSqueak and Matlab. Further USV experiments were performed on P8 pups as previously described (12) with slight modifications.

In series [7] the test system is Tyr mice. Description: Visual evoked potentials (VEP). The class given is in vivo, mouse. Also noted: key to NAP efficacy: visual evoked potential/axonal transport: corrections by NAP treatment (+). The method, then:
VEP—5.72±0.52-week-old male mice were used for VEP measurements. Animals were treated for 3 days with 0.1 ml S.C saline, recorded, and then followed by 4 daily S.C doses of either 1 μg NAP (in 0.1 ml saline) or 0.1 ml saline followed by another VEP recording.

Series [8] deals with Tyr-GFP mouse model. As to the kind of experiment: Dendritic spine quantitation in Tyr-GFP mice. The series is classed as in vivo. The method, then:
Spine quantitation—For determination of dendritic spine morphology, the Tyr-GFP mouse model was used and generated as described(12). 1.5-2-month-old Tyr-GFP-mice were treated for 9 consecutive days with either intraperitoneal NAP injection (0.4 μg/0.1 ml saline) or with 0.1 ml saline. On day 9, mice were perfused, and brains were subjected to immunohistochemistry and imaging (12).

Series [9] relates to BTBR mouse. Description: Social recognition in the BTBR mouse. The series is classed as in vivo.
The test system of series [10] is Tyr mice. Description: RNA seq of mouse spleens. The series is classed as in vivo. The method, then:
RNA seq—Total RNA was extracted from 14-week-old mouse spleens and sequenced using standard methods on NextSeq500 system (Illumina) as detailed. Data were analyzed as previously described (9).

With `CC[C@H](C)[C@H](NC(=O)[C@H](CO)NC(=O)[C@@H](NC(=O)[C@@H]1CCCN1C(=O)[C@H](C)NC(=O)[C@@H](N)CC(N)=O)C(C)C)C(=O)N1CCC[C@H]1C(=O)N[C@@H](CCC(N)=O)C(=O)O` [NAP, NAPVSIPQ], the “bacterial loads (EubV3, BIF, Lacto, Entero)” value in series [1] was “no effect on WT mice”. The “Tau-MT interaction (immobile mCherry-Tau fraction)” value in series [2] (cells expressing ADNP p.Glu830synfs*83, NAP 10^−12M) is on record as “significantly increased Tau-MT interaction”; in [2] (cells expressing ADNP p.Ser404*, NAP 10^−12M) it was “significantly increased Tau-MT interaction”. Further, the “Tau immobile fraction (Tau-MT interaction) in the presence of zinc” value in [2] (zinc 400 μM, 1 h, peptide 10^−12M) is recorded as “excessive impact of NAP on Tau-MT interaction”. In [3], the “bioavailability / cell penetration” value was “bioavailable by endocytosis”. Besides, the “NAP efficacy: visual evoked potential/axonal transport” value in series [4] and in series [7] (Tyr mouse (first symbol)) was “+/+” throughout. Further, in [5], the AT8 positive cells entry is reported as “did not display a NAP effect”. In addition, the “total USVs” value in series [6] (Tyr female and male P8 pups) is listed as “no NAP effects”. Moreover, in series [6] (WT pups, data not shown), the syntax entry is “minor varied impact on WT pups”. Besides, the “syntax transition probabilities, Xi square analysis Tyr vs. Tyr NAP” value in series [6] (females, p<0.001) was “significant improvement with NAP treatment”; in series [6] (males, p=0.027) it was “same significant changes”. Further, the “VEP P3 AUC” value in series [7] (Tyr males) was “significant NAP effect seen in the 300 and 3000 mcd intensities”. Besides, the “spine density, motor cortex” value in [8] (WT females, data not shown) is on record as “no treatment effect was found on WT females”. Also, in series [8] (female Tyr mice), the “PSD95 volume in the hippocampus” value is reported as “complete resolution upon NAP treatment”. Also, the “mushroom spine density, motor cortex” value in series [8] (female Tyr mice) is given as “NAP significantly affecting the larger, functionally stronger, mushroom shaped spines”. For the same molecule, in series [8] (female Tyr mice, i.p. NAP, 9 days), the “increase in spine density, motor cortex L5 layer” value is listed as approximately 17%. Further, the social recognition entry in series [9] was “preference of the mouse, rather than the cup=object chamber”. Besides, the “spleen gene expression converging on AKT1, nervous and reproductive systems development” value in series [10] is “corrected by NAP”.
